What was measured:
786-0 = details: 10 μM single dose; Renal Cancer 786-0
From the text: (§1) The test compounds were screened for anticancer activity at the Development Therapeutic Program (DTP), National Cancer Institute (NCI), USA, against a full NCI 59 cell line panel (six cell lines of leukemia, nine cell lines of lung cancer, seven cell lines of colon cancer, six cell lines of CNS cancer, nine cell lines of melanoma, seven cell lines of ovarian cancer, seven cell lines of renal cancer, two cell lines of prostate cancer, and six cell lines of breast cancer) representing nine human systems in total as leukemia, melanoma, and cancers of the lungs, colon, brain, breast, ovary, kidney, and prostate, according to the applied protocol. A primary in vitro one dose anticancer assay was performed at a single dose (10 μM) against the full NCI 59 cell line panel. The one dose data was reported as a mean graph of the percent growth of treated cells. The number reported for the single dose assay was growth relative to the no drug control and relative to the initial number of cells at time 0. […] A value of −40 means 40% lethality. A value of −100 means all cells are dead.

ACHN = details: 10 μM single dose; Renal Cancer ACHN
From the text: as §1

BT-549 = details: 10 μM single dose; Breast Cancer BT-549
From the text: as §1

CCRF-CEM = details: 10 μM single dose; Leukemia CCRF-CEM
From the text: as §1

COLO 205 = details: 10 μM single dose; Colon Cancer COLO 205
From the text: as §1

DU-145 = details: 10 μM single dose; Prostate Cancer DU-145
From the text: as §1

EKVX = details: 10 μM single dose; Non-Small Cell Lung Cancer EKVX
From the text: as §1

HCT-116 = details: 10 μM single dose; Colon Cancer HCT-116
From the text: as §1

HOP-92 = details: 10 μM single dose; Non-Small Cell Lung Cancer HOP-92
From the text: as §1

K-562 = details: 10 μM single dose; Leukemia K-562
From the text: as §1

KM12 = details: 10 μM single dose; Colon Cancer KM12
From the text: as §1

LOX IMVI = details: 10 μM single dose; Melanoma LOX IMVI
From the text: as §1

M14 = details: 10 μM single dose; Melanoma M14
From the text: as §1

MDA-MB-435 = details: 10 μM single dose; Melanoma MDA-MB-435
From the text: as §1

MOLT-4 = details: 10 μM single dose; Leukemia MOLT-4
From the text: as §1

NCI-H226 = details: 10 μM single dose; Non-Small Cell Lung Cancer NCI-H226
From the text: as §1

NCI-H23 = details: 10 μM single dose; Non-Small Cell Lung Cancer NCI-H23
From the text: as §1

NCI-H460 = details: 10 μM single dose; Non-Small Cell Lung Cancer NCI-H460
From the text: as §1

NCI-H522 = details: 10 μM single dose; Non-Small Cell Lung Cancer NCI-H522
From the text: as §1

OVCAR-4 = details: 10 μM single dose; Ovarian Cancer OVCAR-4
From the text: as §1

OVCAR-5 = details: 10 μM single dose; Ovarian Cancer OVCAR-5
From the text: as §1

PC-3 = details: 10 μM single dose; Prostate Cancer PC-3
From the text: as §1

RXF 393 = details: 10 μM single dose; Renal Cancer RXF 393
From the text: as §1

SF-268 = details: 10 μM single dose; CNS Cancer SF-268
From the text: as §1

SF-295 = details: 10 μM single dose; CNS Cancer SF-295
From the text: as §1

SK-MEL-2 = details: 10 μM single dose; Melanoma SK-MEL-2
From the text: as §1

SK-OV-3 = details: 10 μM single dose; Ovarian Cancer SK-OV-3
From the text: as §1

SNB-19 = details: 10 μM single dose; CNS Cancer SNB-19
From the text: as §1

SNB-75 = details: 10 μM single dose; CNS Cancer SNB-75
From the text: as §1

SW-620 = details: 10 μM single dose; Colon Cancer SW-620
From the text: as §1

T-47D = details: 10 μM single dose; Breast Cancer T-47D
From the text: as §1

TK-10 = details: 10 μM single dose; Renal Cancer TK-10
From the text: as §1

U251 = details: 10 μM single dose; CNS Cancer U251
From the text: as §1

UACC-257 = details: 10 μM single dose; Melanoma UACC-257
From the text: as §1

UACC-62 = details: 10 μM single dose; Melanoma UACC-62
From the text: as §1

UO-31 = details: 10 μM single dose; Renal Cancer UO-31
From the text: as §1

HL-60(TB) = details: 10 μM single dose; Leukemia HL-60(TB)

SMILES | Growth Percentage (786-0) [%] | Growth Percentage (ACHN) [%] | Growth Percentage (BT-549) [%] | Growth Percentage (CCRF-CEM) [%] | Growth Percentage (COLO 205) [%] | Growth Percentage (DU-145) [%] | Growth Percentage (EKVX) [%] | Growth Percentage (HCT-116) [%] | Growth Percentage (HOP-92) [%] | Growth Percentage (K-562) [%] | Growth Percentage (KM12) [%] | Growth Percentage (LOX IMVI) [%] | Growth Percentage (M14) [%] | Growth Percentage (MDA-MB-435) [%] | Growth Percentage (MOLT-4) [%] | Growth Percentage (NCI-H226) [%] | Growth Percentage (NCI-H23) [%] | Growth Percentage (NCI-H460) [%] | Growth Percentage (NCI-H522) [%] | Growth Percentage (OVCAR-4) [%] | other results
[2H]C1([2H])NC([2H])([2H])C([2H])(c2ccc(-n3cc4cccc(C(N)=O)c4n3)cc2)C([2H])([2H])C1([2H])[2H] (racemic) [Example 3, 2-(4-(piperidin-3-yl-2,2,3,4,4,5,5,6,6-d9)phenyl)-2H-indazole-7-carboxamide] | 103.31 | 77.21 | 113.02 | 87.92 | 94.82 | 97.89 | 100.49 | 83.66 | 98.72 | 89.73 | 99.34 | 76.95 | 98.03 | 98.88 | 86.53 | 93.61 | 91.99 | 86.91 | 83.10 | 106.31 | Growth Percentage (OVCAR-5): 100.56%; Growth Percentage (PC-3): 80.86%; Growth Percentage (RXF 393): 111.56%; Growth Percentage (SF-268): 88.94%; Growth Percentage (SF-295): 96.74%; Growth Percentage (SK-MEL-2): 117.90%; Growth Percentage (SK-OV-3): 96.60%; Growth Percentage (SNB-19): 91.61%; Growth Percentage (SNB-75): 76.50%; Growth Percentage (SW-620): 84.69%; Growth Percentage (T-47D): 98.94%; Growth Percentage (TK-10): 98.41%; Growth Percentage (U251): 85.78%; Growth Percentage (UACC-257): 97.56%; Growth Percentage (UACC-62): 84.84%; Growth Percentage (UO-31): 80.19%; Growth Percentage (HL-60(TB)): 89.31%
[2H]c1c([2H])c(-n2nc3c(C(N)=O)cccc3c2[2H])c([2H])c([2H])c1C1CCCNC1 (racemic) [Example 11, 2-(4-(piperidin-3-yl)phenyl-2,3,5,6-d4)-2H-indazole-3-d-7-carboxamide] | 97.43 | 72.39 | 91.44 | 68.34 | 79.11 | 87.51 | 91.65 | 81.62 | 79.03 | 87.94 | 83.99 | 71.49 | 90.64 | 91.99 | 71.06 | 92.42 | 82.01 | 80.76 | 89.79 | 103.47 | Growth Percentage (OVCAR-5): 89.69%; Growth Percentage (PC-3): 68.67%; Growth Percentage (RXF 393): 107.27%; Growth Percentage (SF-268): 82.89%; Growth Percentage (SF-295): 90.94%; Growth Percentage (SK-MEL-2): 108.51%; Growth Percentage (SK-OV-3): 94.12%; Growth Percentage (SNB-19): 85.34%; Growth Percentage (SNB-75): 76.35%; Growth Percentage (SW-620): 72.01%; Growth Percentage (T-47D): 90.97%; Growth Percentage (TK-10): 102.70%; Growth Percentage (U251): 92.89%; Growth Percentage (UACC-257): 102.12%; Growth Percentage (UACC-62): 76.75%; Growth Percentage (UO-31): 79.89%; Growth Percentage (HL-60(TB)): 69.13%
[2H]c1c([2H])c(C2([2H])C([2H])NC([2H])C([2H])C2[2H])c([2H])c([2H])c1-n1cc2cccc(C(N)=O)c2n1 (stereo not drawn) [Example 4, 2-(4-(piperidin-3-yl-2,3,4,5,6-d5)phenyl-2,3,5,6-d4)-2H-indazole-7-carboxamide] | 92.79 | 72.83 | 99.58 | 89.50 | 82.07 | 89.54 | 88.21 | 77.22 | 90.59 | 77.76 | 87.65 | 70.64 | 84.68 | 92.97 | 78.10 | 91.01 | 84.26 | 76.94 | 87.37 | 98.64 | Growth Percentage (OVCAR-5): 89.23%; Growth Percentage (PC-3): 85.40%; Growth Percentage (RXF 393): 102.74%; Growth Percentage (SF-268): 89.52%; Growth Percentage (SF-295): 85.63%; Growth Percentage (SK-MEL-2): 101.94%; Growth Percentage (SK-OV-3): 90.49%; Growth Percentage (SNB-19): 88.53%; Growth Percentage (SNB-75): 70.09%; Growth Percentage (SW-620): 72.23%; Growth Percentage (T-47D): 98.04%; Growth Percentage (TK-10): 96.15%; Growth Percentage (U251): 83.63%; Growth Percentage (UACC-257): 107.99%; Growth Percentage (UACC-62): 85.29%; Growth Percentage (UO-31): 75.43%; Growth Percentage (HL-60(TB)): 77.68%

Source: patent US11384062B2 (CombiPhos Catalysts, Inc., priority 2017, dated 2022)
